Patent US7968566B2, “Pyrrolo(2,3-b) pyridine derivatives, the preparation and the pharmaceutical use thereof in the form of kinase inhibitors” (Aventis Pharma S.A., priority 2004, dated 2011)

Row | Compound | melting point [°C]
1 | COc1cc2c(-c3cc4c(C#N)ccnc4[nH]3)cn(CCN3CCN(C)CC3)c2cc1OC [Example 102, 2-{5,6-dimethoxy-1-[2-(4-methylpiperazin-1-yl)ethyl]-1H-indol-3-yl}-1H-pyrrolo[2,3-b]pyridine-4-carbonitrile] | 196
2 | COc1cc2c(-c3cc4c(Cl)ccnc4[nH]3)cn(CCN3CCN(C)CC3)c2cc1OC [Example 101, 4-chloro-2-{5,6-dimethoxy-1-[2-(4-methylpiperazin-1-yl)ethyl]-1H-indol-3-yl}-1H-pyrrolo[2,3-b]pyridine] | 192
3 | COc1cc2c(-c3cc4c(Cl)ccnc4[nH]3)cn(CCN3CCOCC3)c2cc1OC [Example 99, 4-chloro-2-[5,6-dimethoxy-1-(2-morpholin-4-ylethyl)-1H-indol-3-yl]-1H-pyrrolo[2,3-b]pyridine] | 240
4 | COc1cc2c(-c3cc4cc(Cl)cnc4[nH]3)cn(C)c2cc1OC [Example 103, 5-chloro-2-(5,6-dimethoxy-1-methyl-1H-indol-3-yl)-1H-pyrrolo[2,3-b]pyridine] | 192
5 | COc1cc2c(-c3cc4cc(F)cnc4[nH]3)cn(CCN3CCOCC3)c2cc1OC [Example 105, 2-[5,6-dimethoxy-1-(2-morpholin-4-ylethyl)-1H-indol-3-yl]-5-fluoro-1H-pyrrolo[2,3-b]pyridine] | 205 to 210
6 | COc1cc2c(-c3cc4c(Cl)ccnc4[nH]3)cn(CCN3CCC(CCO)CC3)c2cc1OC [Example 100, 2-(1-{2-[3-(4-chloro-1H-pyrrolo[2,3-b]pyridin-2-yl)-5,6-dimethoxyindol-1-yl]ethyl}piperidin-4-yl)ethanol] | 200
7 | COc1cc2c(-c3cc4cc(F)cnc4[nH]3)cn(CCN3CCN(C)CC3)c2cc1OC [Example 106, 2-{5,6-Dimethoxy-1-[2-(4-methylpiperazin-1-yl)ethyl]-1H-indol-3-yl}-5-fluoro-1H-pyrrolo[2,3-b]pyridine] | 188
8 | COc1cc(OC)c2c(c1)c(-c1cc3cccnc3[nH]1)cn2C [Example 175, 2-(5,7-Dimethoxy-1-methyl-1H-indol-3-yl)-1H-pyrrolo[2,3-b]pyridine] | 220
9 | COc1cc2c(-c3cc4cc(F)cnc4[nH]3)cn(C)c2cc1OC [Example 104, 2-(5,6-dimethoxy-1-methyl-1H-indol-3-yl)-5-fluoro-1H-pyrrolo[2,3-b]pyridine] | 283
